Activity calls are given as the source filed them. No cut-off for these calls is given here.
How the values were obtained:
[1] = Drug level in plasma of Sprague-Dawley CD rat at 5 mg/kg, sc administered as single dose measured after 168 hrs post dose by LC/MS-MS method; assay type: ADME, organism-based; conditions: in vivo
[2] = Half life in brain of Sprague-Dawley CD rat at 5 mg/kg, sc administered as single dose measured over 1 to 168 hrs post dose by LC/MS-MS method; assay type: ADME, organism-based
in vivo [3] = conditions: Sprague-Dawley CD, rat, brain, sc, 5 mg/kg
[4] = Ratio of AUClast in brain to plasma of Sprague-Dawley CD rat at 5 mg/kg, sc administered as single dose measured over 1 to 168 hrs post dose by LC/MS-MS method; assay type: ADME, organism-based; conditions: brain
in vivo [5] = conditions: Sprague-Dawley CD, rat, plasma, sc, 5 mg/kg
[6] = Total AUC in plasma of Sprague-Dawley CD rat at 5 mg/kg, sc administered as single dose measured over 1 to 168 hrs post dose by LC/MS-MS method; assay type: ADME, organism-based; set-up: dose 5 mg/kg, route subcutaneous, time AUCmax
[7] = Total AUC in brain of Sprague-Dawley CD rat at 5 mg/kg, sc administered as single dose measured over 1 to 168 hrs post dose by LC/MS-MS method; assay type: ADME, organism-based; set-up: dose 5 mg/kg, time AUCmax, route subcutaneous; conditions: in vivo
[8] = AUClast in plasma of Sprague-Dawley CD rat at 5 mg/kg, sc administered as single dose measured over 1 to 168 hrs post dose by LC/MS-MS method; assay type: ADME, organism-based; set-up: dose 5 mg/kg, route subcutaneous, time 0 - last
[9] = target: Delta-type opioid receptor (Homo sapiens) (UniProt P41143); test: Antagonist activity at human delta-opioid receptor expressed in CHO cell membranes assessed as inhibition of DPDPE-induced [35S]GTPgammaS binding incubated for 60 mins by scintillation counting method; assay type: functional
[10] = AUClast in brain of Sprague-Dawley CD rat at 5 mg/kg, sc administered as single dose measured over 1 to 168 hrs post dose by LC/MS-MS method; assay type: ADME, organism-based; conditions: in vivo
[11] = target: Delta-type opioid receptor (Homo sapiens) (UniProt P41143); test: Agonist activity at human delta-opioid receptor expressed in CHO cell membranes assessed as stimulation of [35S]GTPgammaS binding at 10 uM incubated for 60 mins by scintillation counting method; assay type: functional
[12] = Half life in plasma of Sprague-Dawley CD rat at 5 mg/kg, sc administered as single dose measured over 1 to 168 hrs post dose by LC/MS-MS method; assay type: ADME, organism-based
[13] = Drug level in brain of Sprague-Dawley CD rat at 5 mg/kg, sc administered as single dose measured after 168 hrs post dose by LC/MS-MS method; assay type: ADME, organism-based; conditions: in vivo
[14] = target: Mu-type opioid receptor (Homo sapiens) (UniProt P35372); test: Agonist activity at human mu-opioid receptor expressed in CHO cell membranes assessed as stimulation of [35S]GTPgammaS binding at 10 uM incubated for 60 mins by scintillation counting method; assay type: functional
[15] = Clearance in plasma of Sprague-Dawley CD rat at 5 mg/kg, sc administered as single dose measured over 1 to 168 hrs post dose by LC/MS-MS method; assay type: ADME, organism-based
[16] = target: Kappa-type opioid receptor (Homo sapiens) (UniProt P41145); test: Agonist activity at human kappa-opioid receptor expressed in CHO cell membranes assessed as stimulation of [35S]GTPgammaS binding at 10 uM incubated for 60 mins by scintillation counting method; assay type: functional
Kappa-type opioid receptor (Homo sapiens), sequence (P41145 whole entry): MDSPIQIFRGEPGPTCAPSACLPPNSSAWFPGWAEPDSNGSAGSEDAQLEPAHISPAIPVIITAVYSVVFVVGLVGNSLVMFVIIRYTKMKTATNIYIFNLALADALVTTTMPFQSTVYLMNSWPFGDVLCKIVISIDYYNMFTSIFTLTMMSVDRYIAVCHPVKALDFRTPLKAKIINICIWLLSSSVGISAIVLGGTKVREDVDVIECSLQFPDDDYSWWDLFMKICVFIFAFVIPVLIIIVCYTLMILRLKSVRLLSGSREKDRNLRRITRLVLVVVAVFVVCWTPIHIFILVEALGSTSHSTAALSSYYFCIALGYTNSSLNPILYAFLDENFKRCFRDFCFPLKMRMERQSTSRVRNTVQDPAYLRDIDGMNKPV

Delta-type opioid receptor (Homo sapiens), sequence (P41143 whole entry): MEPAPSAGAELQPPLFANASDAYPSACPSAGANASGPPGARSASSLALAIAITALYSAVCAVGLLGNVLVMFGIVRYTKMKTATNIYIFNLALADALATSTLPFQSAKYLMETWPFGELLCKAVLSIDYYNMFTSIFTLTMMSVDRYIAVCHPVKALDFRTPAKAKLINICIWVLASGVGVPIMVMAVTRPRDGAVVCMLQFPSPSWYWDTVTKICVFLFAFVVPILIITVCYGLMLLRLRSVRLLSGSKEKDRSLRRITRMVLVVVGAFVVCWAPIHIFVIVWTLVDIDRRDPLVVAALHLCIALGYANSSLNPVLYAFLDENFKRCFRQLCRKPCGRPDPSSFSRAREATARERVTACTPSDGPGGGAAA
Mu-type opioid receptor (Homo sapiens), sequence (P35372 whole entry): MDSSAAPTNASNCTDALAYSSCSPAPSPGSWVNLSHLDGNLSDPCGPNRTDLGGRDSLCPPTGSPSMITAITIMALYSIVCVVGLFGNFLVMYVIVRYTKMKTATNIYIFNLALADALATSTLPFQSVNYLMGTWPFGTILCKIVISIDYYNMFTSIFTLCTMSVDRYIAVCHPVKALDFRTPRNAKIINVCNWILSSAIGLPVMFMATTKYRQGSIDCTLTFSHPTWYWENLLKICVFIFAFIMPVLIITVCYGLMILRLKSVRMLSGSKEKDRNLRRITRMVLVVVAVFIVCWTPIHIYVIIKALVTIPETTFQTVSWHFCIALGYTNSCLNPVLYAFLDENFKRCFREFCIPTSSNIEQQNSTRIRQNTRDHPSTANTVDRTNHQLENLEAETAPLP

CC1CCN(C[C@@H](NC(=O)[C@H]2Cc3ccc(O)cc3CN2)C(C)C)CC1
Drug uptake [1]: Active | half-life [2]: 57.2 h | Tmax (in vivo [3]): 4 h | BPR [4]: 10.07 | Tmax (in vivo [5]): 1 h | AUC [6]: 1900 ng·h/mL | AUC [7]: 21400 ng·h/g | AUC(0-t) [8]: 1860 ng·h/mL | Ke [9]: > 3000 nM | AUClast [10]: 18765 ng·h/g | Activity [11]: inactive | half-life [12]: 30.7 h | Drug uptake [13]: Active | Activity [14]: inactive | CL/F [15]: 43.8 mL/min/kg | Activity [16]: inactive

Source: ChEMBL document CHEMBL4145694 (J Med Chem, 2018)
